Assay results: PubChem BioAssay (NCI)
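96-well plates; 48 h exposure; 5 concentrations. Endpoints by linear interpolation between flanking doses. Not reached: highest tested concentration assigned. Abbreviation: GI50, concentration required for 50% inhibition of growth. TGI is the concentration that stops growth completely.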

Key:
Assay in all cases: NCI-60 cell line screen, 48 h
HL-60(TB) leukemia = test system: HL-60(TB) leukemia
HOP-92 NSCLC = test system: HOP-92 NSCLC
M14 melanoma = test system: M14 melanoma
NCI-H460 lung = test system: NCI-H460 lung
SF-539 CNS = test system: SF-539 CNS
SNB-19 CNS = test system: SNB-19 CNS
DU-145 prostate = test system: DU-145 prostate
NCI/ADR-RES ovarian = test system: NCI/ADR-RES ovarian
HS 578T breast = test system: HS 578T breast
MDA-MB-231 breast = test system: MDA-MB-231 breast

| Compound | GI50 (HL-60(TB) leukemia) [µM] | TGI (HL-60(TB) leukemia) [µM] | TGI (HOP-92 NSCLC) [µM] | TGI (M14 melanoma) [µM] | TGI (NCI-H460 lung) [µM] | GI50 (SF-539 CNS) [µM] | TGI (SF-539 CNS) [µM] | GI50 (SNB-19 CNS) [µM] | TGI (SNB-19 CNS) [µM] | GI50 (DU-145 prostate) [µM] | TGI (DU-145 prostate) [µM] | GI50 (HOP-92 NSCLC) [µM] | GI50 (M14 melanoma) [µM] | GI50 (NCI-H460 lung) [µM] | GI50 (NCI/ADR-RES ovarian) [µM] | TGI (NCI/ADR-RES ovarian) [µM] | GI50 (HS 578T breast) [µM] | TGI (HS 578T breast) [µM] | GI50 (MDA-MB-231 breast) [µM] | TGI (MDA-MB-231 breast) [µM] |
| --- | --- | --- | --- | --- | --- | --- | --- | --- | --- | --- | --- | --- | --- | --- | --- | --- | --- | --- | --- | --- |
| COc1cc(CNc2nc3c(N)cc(C(F)(F)F)cc3nc2-c2ccccc2)cc(OC)c1OC | > 100 | > 100 | > 100 | > 100 | > 100 | > 100 | > 100 | > 100 | > 100 |  |  |  |  |  |  |  |  |  |  |  |
| Cc1ccc(/C=C/c2c(C(=O)/C=C/c3ccccc3)c(C)nc3ccccc23)cc1 | 2.04 | 4.89 | 4.34 | 4.52 | 2.99 | 1.74 | 3.19 | 1.66 | 3.08 | 1.65 | 3.15 | 1.52 | 1.87 | 1.37 | 2.24 | 5.85 |  |  |  |  |
| C=C(C)[C@@H]1CCC=C2CC[C@]3(C)[C@H](CC[C@@H]4[C@@]5(C)CCCNC(C)(C)[C@@H]5CC[C@]43C)[C@H]21 | 1.58 | 3.57 |  | 3.34 | 3.73 | 1.89 | 3.58 |  |  | 1.86 | 3.57 |  | 1.73 | 1.93 |  |  | 2.01 | 4.87 | 1.77 | 3.31 |
| CC(C)C1CO[C@]2(C)CCC(=O)N12 (stereo partly drawn) |  | > 100 | > 100 | > 100 | > 100 |  | > 100 |  | > 100 |  |  |  |  |  |  |  |  |  |  |  |
| Cc1cc2c(c(C(N)=O)c1C)-c1cccc(F)c1C2=O |  |  | > 100 | > 100 | > 100 |  | > 100 |  | > 100 |  |  |  |  |  |  |  |  |  |  |  |
| O=c1cc(-c2ccccn2)[nH]c2cccc(F)c12 |  | > 100 | > 100 | > 100 | > 100 |  | > 100 |  | > 100 |  |  |  |  |  |  |  |  |  |  |  |
| O=c1cccccc1[O-].O=c1cccccc1[O-].O=c1cccccc1[O-].[Eu+3] |  | 74.5 | > 100 | > 100 | > 100 | 30.2 | > 100 |  | > 100 |  |  |  |  |  |  |  |  |  |  |  |
| Cc1c(C(=O)C/C(=N/NC(=O)c2ccccc2)C(=O)Nc2ccc(Cl)cc2)[n+](=O)c2ccccc2n1[O-] |  | 56.4 |  | > 100 | > 100 |  | > 100 |  | > 100 |  |  |  |  |  |  |  |  |  |  |  |
| COc1ccc2c(c1)[n+](=O)c(C(=O)c1cccs1)c(C(F)(F)F)n2[O-] | 4.04 | > 50 | 49.5 | > 50 | 13.8 | 5.1 | 16.2 | 10.7 | > 50 | 2.57 | 12.7 | 7.91 | 10.9 | 1.68 | 4.99 | > 50 |  |  | 7.38 | 25.4 |
| CCCn1c(SCCSc2c3ccccc3c(-c3nc(F)nc(F)n3)n2CCC)c2ccccc2c1-c1nc(F)nc(F)n1 |  | > 100 | > 100 | > 100 | > 100 |  | > 100 |  | > 100 |  |  |  |  |  |  |  |  |  |  |  |
| CCC[CH2][Sn]([CH2]CCC)([O]C(=O)c1cc(OC)c(OC)cc1OC)[O][Sn]([CH2]CCC)([CH2]CCC)[O]C(=O)c1cc(OC)c(OC)cc1OC | 0.288 | 1.31 | 0.564 | 0.797 | 2.85 | 0.314 | 1.01 | 0.27 | 1.08 |  |  | 0.206 | 0.282 | 1.3 |  |  |  |  |  |  |
| C[N+]1=c2c3cccc4cccc(c(=O)n2CC1)c43 |  | 46.3 | 61.8 | 28.7 | 28.2 |  | 32.2 |  |  |  |  |  |  |  |  |  |  |  |  |  |
| N#C/C(=C1\SCC(=O)N1c1ccccc1)c1nc2ccccc2[nH]1 |  | > 100 | > 100 | > 100 | > 100 |  | > 100 |  | > 100 |  |  |  |  |  |  |  |  |  |  |  |
| O=C1C2C(C(=O)N1c1ccccc1)C1c3ccccc3C2C2C(=O)N(c3ccccc3)C(=O)C21 (stereo not drawn) |  | 44.9 | > 100 | > 100 | > 100 |  | 31.4 |  | > 100 |  |  |  |  |  |  |  |  |  |  |  |
| O=C(/C=C(\O)C(=O)O)/C=C(\O)c1ccccc1 | > 1 | > 100 | > 1 | > 100 | > 100 | < 1 | > 1 | > 1 | > 100 |  |  | > 1 | > 1 | > 1 |  |  |  |  |  |  |
| CCOC(=O)NC(=O)c1cn(CCN2CCN(C(=O)CNC(=O)CNC(=O)Cn3cc(C(=O)NC(=O)OCC)c(=O)[nH]c3=O)CC2)c(=O)[nH]c1=O |  | > 100 | > 100 | > 100 | > 100 |  | > 100 |  | > 100 |  |  |  |  |  |  |  |  |  |  |  |
| CC(C)/C=C1\CCC(CN2CCOCC2)C1=O (stereo not drawn) |  | 5.58 | 38.9 | 26.1 | > 60.7 |  | 29.3 |  | > 100 |  |  |  |  |  |  |  |  |  |  |  |

| Compound | GI50 (HL-60(TB) leukemia) [µM] | TGI (HL-60(TB) leukemia) [µM] | TGI (HOP-92 NSCLC) [µM] | TGI (M14 melanoma) [µM] | TGI (NCI-H460 lung) [µM] | GI50 (SF-539 CNS) [µM] | TGI (SF-539 CNS) [µM] | GI50 (SNB-19 CNS) [µM] | TGI (SNB-19 CNS) [µM] | GI50 (DU-145 prostate) [µM] | TGI (DU-145 prostate) [µM] | GI50 (HOP-92 NSCLC) [µM] | GI50 (M14 melanoma) [µM] | GI50 (NCI-H460 lung) [µM] | GI50 (NCI/ADR-RES ovarian) [µM] | TGI (NCI/ADR-RES ovarian) [µM] | GI50 (HS 578T breast) [µM] | TGI (HS 578T breast) [µM] | GI50 (MDA-MB-231 breast) [µM] | TGI (MDA-MB-231 breast) [µM] |
| --- | --- | --- | --- | --- | --- | --- | --- | --- | --- | --- | --- | --- | --- | --- | --- | --- | --- | --- | --- | --- |
| C/C(CC(=O)Nc1cccc(Cl)c1C)=N\NC(N)=S |  | > 100 | > 100 | > 100 | > 100 |  | > 100 |  |  |  |  |  |  |  |  |  |  |  |  |  |
| COC1C(OC(=O)c2ccc(C)[nH]2)C(O)C(Oc2ccc3c(O)c(NC(=O)c4c[nH]c(C(=O)Nc5c(O)c6ccc(OC7OC(C)(C)C(OC)C(OC(=O)c8ccc(C)[nH]8)C7O)c(C)c6oc5=O)c4C)c(=O)oc3c2C)OC1(C)C (stereo not drawn) |  |  |  |  | 6.62 |  |  |  | 6.1 |  |  |  |  |  |  |  |  |  |  |  |
| C#CC1(O)CCC2C3CCc4cc(Oc5nc(F)nc(-c6c7ccccc7c7n6CCS7)n5)ccc4C3CC[C@@]21C (stereo partly drawn) |  | 54.5 | 47 | 40.5 | > 100 |  | 33 |  | 70.6 |  |  |  |  |  |  |  |  |  |  |  |
| [N-]=[N+]=NC(c1cn(C2CC(O)C(CO)O2)c(=O)[nH]c1=O)C(Cl)Br (stereo not drawn) |  | > 100 | > 100 |  | > 100 |  | > 100 |  | > 100 |  |  |  |  |  |  |  |  |  |  |  |
| COc1cc2c(cc1OC)C(C(=O)O)C(c1ccccc1)N(C)C2=O (stereo not drawn) |  |  |  | > 100 | > 100 |  | > 100 |  | > 100 |  |  |  |  |  |  |  |  |  |  |  |
| C=CCn1c(=S)sc2c(C(=O)OCC)c3c(C)cc(C)cn3c2c1=O |  | > 100 |  | > 100 | > 100 |  | > 100 |  | > 100 |  |  |  |  |  |  |  |  |  |  |  |
| CCOc1ccc2c(-c3ccnc(Nc4cc(OC)cc(C(F)(F)F)c4)n3)cnn2n1 | > 25 | > 25 |  | > 25 | > 25 | 5.96 | > 14.7 | > 25 | > 25 | > 18.9 | > 25 |  | > 25 | > 15.7 | 4.66 | > 25 | > 17.4 | > 25 | 9.6 | > 22.5 |
| CCCn1c2c(c3c(O)cccc31)C(=O)c1ccccc1-2 |  |  |  | > 100 | > 100 |  |  | 25.5 | > 100 | 23.4 | > 100 |  | 60.6 | 22.1 | 13.4 | 81.6 | 33.1 | > 100 | 22.1 | 73.8 |
| C/C(CC(=O)NCCc1ccccc1)=N\NS(=O)(=O)c1ccc(C)cc1 |  | > 100 | > 100 | > 100 | > 100 |  | > 100 |  |  |  |  |  |  |  |  |  |  |  |  |  |
| CCO/C=C1\N=C(c2ccc(Cl)c(Cl)c2)OC1=O |  | > 100 | > 100 | > 100 | > 100 |  | > 100 |  | > 100 |  |  |  |  |  |  |  |  |  |  |  |
| ClC(Cl)=C(Cl)C1(Cl)CC1COCc1ccccc1 (stereo not drawn) |  | 41.9 | 42.8 | > 100 | > 100 |  | > 100 |  | > 100 |  |  |  |  |  |  |  |  |  |  |  |
| O=S(=O)(NC1CCCCC1)c1ccc2c(c1)OCCOCCOCCOCCO2 |  | > 100 |  | > 100 | > 100 |  | > 100 |  | > 100 |  | > 100 |  |  |  |  |  |  | > 100 |  | > 100 |
| CNC(=O)NCC1OC(n2cnc3c(NC(=O)Nc4ccccc4)ncnc32)C(O[Si](C)(C)C(C)(C)C)C1O[Si](C)(C)C(C)(C)C (stereo not drawn) |  |  | 5.16 | 18.5 | 3.49 | 3.07 | 13 | 4.57 | > 100 | 2.58 | 5.71 | 1.56 | 4.33 | 1.72 | 3.72 | 20.7 |  |  | 2.61 | 6.12 |
| COC(=O)CCC(NC(=S)N/N=C(\C)c1ccc[nH]1)C(=O)OC (stereo not drawn) |  | > 100 | > 100 | > 100 | > 100 |  | > 100 |  | > 100 |  |  |  |  |  |  |  |  |  |  |  |
| Cc1cn2c(/C=C3/C(=O)Nc4c3ccc3ccccc43)c(C(F)(F)F)nc2s1 | 0.54 | 32.4 | 98.7 | 11.7 | 25.3 | 1.14 | 5.07 | 2.97 | > 100 | 1.67 | > 100 | 5.1 | 0.526 | 0.501 | 0.456 | > 100 | 3 | 78.7 |  |  |
| C=CC(=O)N1C/C(=C\c2ccc(Cl)c(Cl)c2)C(=O)/C(=C/c2ccc(Cl)c(Cl)c2)C1 |  |  | 2.94 | 0.702 | 0.298 |  | 0.367 |  |  |  |  |  |  |  |  |  |  |  |  |  |
